{"source": "paper PMC10997755", "about": "“Discovery of a small-molecule inhibitor that traps Polθ on DNA and synergizes with PARP inhibitors” (Nature Communications, 2024)", "key": {"DLD1 Parental cells": {"tested_on": "DLD1 Parental cells", "test": "γ-H2AX immunofluorescence", "type": "cell-based", "settings": "DLD1-BRCA2-WT, 5 microM", "procedure": "(§1) Cells were plated on six well plates with glass-coverslips and treated with RTX-161 day after plating. Four days after treatment, cells were fixed with 4% (v/v) paraformaldehyde for 20 min at 4 °C, washed with PBS, permeabilized with 0.5% (v/v) Triton X for 10 min and blocked with PBS containing 3% BSA. Cells were incubated with primary antibody overnight at 4 °C followed by 3x washes with PBS and then 1 h incubation with secondary antibody. The incubations were performed in the dark in a humidified chamber. After 3x washing in PBS for 3 min, slides were mounted in 20 ul Prolong antifade with DAPI (LifeTechnologies) to counterstain the nuclei. Cells were visualized and imaged using Nikon A1R Confocal microscope at a 63X objective magnification, and images were analyzed using ImageJ software. For quantification, >50 cells were counted for all conditions from three independent experiments. The primary antibody used for IF was rabbit anti-gamma H2AX [p Ser139] antibody (Bethyl Lab #A700-053) 1:500 dilution in 1% BSA in PBS. The secondary antibody was Goat anti-Rabbit IgG (H + L) Secondary Antibody, DyLight 488 (Thermo #35552) 1:2000 dilution in 1% BSA in PBS."}, "DLD1 BRCA2 -/- cells": {"tested_on": "DLD1 BRCA2 -/- cells", "test": "γ-H2AX immunofluorescence", "type": "cell-based", "procedure": "as §1"}, "[1]": {"test": "Colony survival, ola with or without RTX-161 (source data sheet Fig. 2 c; cell line not given)", "type": "cell-based"}, "Polθ-pol": {"molecular_target": "T1, Polθ-pol (Homo sapiens, UniProt O75417)", "T1 construct": "purified recombinant human Polθ-pol (comprising amino acid residues 1792–2590); made in house", "T1 sequence (O75417 1792-2590)": "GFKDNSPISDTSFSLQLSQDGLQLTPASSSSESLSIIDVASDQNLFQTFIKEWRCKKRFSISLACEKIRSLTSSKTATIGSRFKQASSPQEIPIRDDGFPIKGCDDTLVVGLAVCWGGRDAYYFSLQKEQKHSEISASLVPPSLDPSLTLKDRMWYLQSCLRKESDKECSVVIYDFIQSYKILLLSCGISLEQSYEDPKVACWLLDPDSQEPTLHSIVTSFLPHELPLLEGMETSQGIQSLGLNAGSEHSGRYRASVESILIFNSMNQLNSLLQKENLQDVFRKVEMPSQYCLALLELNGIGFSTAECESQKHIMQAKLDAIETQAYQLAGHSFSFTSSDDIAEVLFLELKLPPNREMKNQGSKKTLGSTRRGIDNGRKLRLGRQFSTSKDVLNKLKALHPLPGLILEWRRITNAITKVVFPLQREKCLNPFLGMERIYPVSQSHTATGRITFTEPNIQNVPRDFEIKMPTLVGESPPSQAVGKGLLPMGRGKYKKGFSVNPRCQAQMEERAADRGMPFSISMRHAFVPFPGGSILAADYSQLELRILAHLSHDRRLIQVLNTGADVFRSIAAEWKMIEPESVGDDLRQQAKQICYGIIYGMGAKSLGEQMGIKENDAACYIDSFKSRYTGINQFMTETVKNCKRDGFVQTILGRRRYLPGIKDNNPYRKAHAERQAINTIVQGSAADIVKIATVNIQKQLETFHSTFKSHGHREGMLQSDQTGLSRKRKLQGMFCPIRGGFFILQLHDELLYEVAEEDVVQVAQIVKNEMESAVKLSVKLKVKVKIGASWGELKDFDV", "test": "Relative rate of Polθ-pol dAMP addition", "type": "biochemical", "procedure": "Relative rate of Polθ-pol dAMP addition. The relative rates of dAMP incorporation by Polq-pol in the presence of DMSO or MC160385 with various concentrations of dATP were measured using the following primer extension assay in vitro. 2 nM or Polθ-pol was incubated with 5’ ^32P-γ-ATP labeled 100 nM primer-template (RP469D/RP486) in 1X buffer (25 mM TrisHCl pH 7.8, 0.01% NP40, 10% glycerol, 1 mM DTT, 10 mM MgCl2, 0.1 mg/ml BSA) at room temp. 2.5% DMSO, 7.5 nM or 12 nM of MC160385 was added. Reactions were than initiated by the addition of 20, 50, 100, 200, or 300 μM dATP at room temp. Aliquots of the reactions were removed and terminated by the addition of 50 mM EDTA at 3, 3.5, 4 and 5 min after the reaction was initiated. Radio-labeled DNA was then resolved via denaturing 20% PAGE and visualized by Typhoon PhosphorImager (GE Amersham). Rates of dAMP incorporation were calculated from % extension of the prime-template which was determined using ImageJ software. Relative rate of ddCMP addition on DNA/DNA and DNA/RNA. 25 nM nucleic acid DNA/DNA or DNA/RNA primer-template (RP559/RP702 or RP559/RP702R) was mixed with 1X reaction buffer (20 mM TrisHCl pH 7.5, 0.01% NP-40, 0.5 mM DTT, 10% glycerol, 0.1 mg/ml BSA, 10 mM MgCl2) in the presence of 250 μM ddCTP at room temp. Next, 2 μM RTx-161 or 2.5% DMSO was added. Reactions were initiated by the addition of 10 nM Polθ-pol. Reaction aliquots were removed and terminated by the addition of 50 mM EDTA at the indicated time points. Radio-labeled DNA was then resolved via denaturing 20% PAGE and visualized by Typhoon PhosphorImager. Percent primer extension by single ddCMP addition at each time point was calculated from % extension of the prime-template which was determined using ImageJ software."}}, "note": "Several values for one entry are separate records, joined by “and”; a condition that tells them apart may be missing. Identical values can stand only once."}
{"smiles": "CN(C(=O)Oc1c(N2CCN(CCO)C2=O)cc(C(F)(F)F)cc1C(F)(F)F)c1ccc(F)cc1", "note": "[RTx-161]", "values": [{"measurement": "Percent of positive nuclei, Average", "setting": "DLD1 Parental cells; Average of Expt 1-3 (DMSO 4.28755)", "value": 10.2071, "unit": "%"}, {"measurement": "Percent of positive nuclei (3 or more than 3 g-H2AX foci)", "setting": "DLD1 Parental cells; single Experiments 1-3", "value": "11.5942% and 12.5984% and 6.429%"}, {"measurement": "Percent of positive nuclei, Average", "setting": "DLD1 BRCA2 -/- cells; DLD1- BRCA2-null, 5 microM, Average of Expt 1-3 (DMSO 14.884)", "value": 48.7855, "unit": "%"}, {"measurement": "Percent of positive nuclei (3 or more than 3 g-H2AX foci)", "setting": "DLD1 BRCA2 -/- cells; DLD1- BRCA2-null, 5 microM, single Experiments 1-3", "value": "47.2973% and 43.3071% and 55.7522%"}, {"measurement": "DNA damage (γ-H2AX phosphorylation)", "setting": "DLD1 BRCA2 -/- cells; immunofluorescence and Western blot, versus parental", "value": "selectively caused DNA damage"}, {"measurement": "percent suvival", "setting": "[1]; RTX-161 1 uM + ola 0.125 um", "value": "37.2624% and 27.7457% and 32.5843%"}, {"measurement": "percent suvival", "setting": "[1]; RTX-161 1 uM + ola 0.25 um", "value": "11.4068% and 11.5607% and 13.4831%"}, {"measurement": "percent suvival", "setting": "[1]; RTX-161 1 uM, ola 0 um", "value": "93.9163% and 101.156% and 103.371%"}, {"measurement": "percent suvival", "setting": "[1]; RTX-161 2 uM, ola 0 um", "value": "93.5361% and 104.624% and 106.742%"}]}
{"smiles": "CN(C(=O)Oc1ccc(C(F)(F)F)cc1C(F)(F)F)c1ccc(F)cc1", "note": "[MC160385]", "values": [{"measurement": "effect on Km for dATP", "setting": "Polθ-pol", "value": "slightly reducing"}, {"measurement": "effect on Vmax of dAMP incorporation", "setting": "Polθ-pol", "value": "significantly reduces"}, {"measurement": "relative velocity of dAMP incorporation (avg)", "setting": "Polθ-pol; 7.5 nM MC160385, dATP 20 uM", "value": "2.69 and 2.7"}, {"measurement": "relative velocity of dAMP incorporation (avg)", "setting": "Polθ-pol; 7.5 nM MC160385, dATP 50 uM", "value": "5.36 and 5.4"}, {"measurement": "relative velocity of dAMP incorporation (avg)", "setting": "Polθ-pol; 7.5 nM MC160385, dATP 100 uM", "value": "6.32 and 6.3"}, {"measurement": "relative velocity of dAMP incorporation (avg)", "setting": "Polθ-pol; 7.5 nM MC160385, dATP 200 uM", "value": "6.56 and 6.6"}, {"measurement": "relative velocity of dAMP incorporation (avg)", "setting": "Polθ-pol; 7.5 nM MC160385, dATP 300 uM", "value": "6.245 and 6.2"}, {"measurement": "relative velocity of dAMP incorporation (avg)", "setting": "Polθ-pol; 12 nM, dATP 20 uM", "value": 2.3}, {"measurement": "relative velocity of dAMP incorporation (avg)", "setting": "Polθ-pol; 12 nM, dATP 50 uM", "value": 4.065}, {"measurement": "relative velocity of dAMP incorporation (avg)", "setting": "Polθ-pol; 12 nM, dATP 50 uM, listed as MC160386", "value": 4.1}, {"measurement": "relative velocity of dAMP incorporation (avg)", "setting": "Polθ-pol; 12 nM, dATP 100 uM", "value": 4.94}, {"measurement": "relative velocity of dAMP incorporation (avg)", "setting": "Polθ-pol; 12 nM, dATP 100 uM, listed as MC160386", "value": 4.9}, {"measurement": "relative velocity of dAMP incorporation (avg)", "setting": "Polθ-pol; 12 nM, dATP 200 uM", "value": 4.6}, {"measurement": "relative velocity of dAMP incorporation (avg)", "setting": "Polθ-pol; 12 nM, dATP 300 uM", "value": 4.95}]}
